Molecular target: T1, Cytophaga hutchinsonii polyphosphate kinase (ChPPK) mutant A79G/S106C/I108F/L285P (parent SEQ ID NO: 2) (Cytophaga hutchinsonii, UniProt A0A6N4SMB5, A79G/I108F/L285P/S106C)
T1 sequence (A0A6N4SMB5 with tags, fused parts or gaps A79G/S106C/I108F/L285P): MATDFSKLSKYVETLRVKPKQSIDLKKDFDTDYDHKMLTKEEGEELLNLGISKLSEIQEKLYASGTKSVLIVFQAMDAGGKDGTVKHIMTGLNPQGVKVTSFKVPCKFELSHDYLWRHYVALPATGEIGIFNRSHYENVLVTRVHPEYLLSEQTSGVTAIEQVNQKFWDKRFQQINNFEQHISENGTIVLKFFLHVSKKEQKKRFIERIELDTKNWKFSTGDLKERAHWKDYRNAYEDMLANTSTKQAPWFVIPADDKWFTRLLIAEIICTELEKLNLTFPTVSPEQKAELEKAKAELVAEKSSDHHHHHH
Assay: Kinetic parameters of mutant ChPPK/A79G/S106C/I108F/L285P (pure enzyme, pseudo-one-substrate kinetic model, ATP by HPLC)
Type: biochemical
Details: mutant versus wild-type; substrate AMP or PPA
Description: (2) Pure enzyme: 5 mL of the crude enzyme solution was diluted with 40 mL of potassium phosphate buffer (20 mM, pH 7.2), and then applied to a HisTrap HP purification column of GE Healthcare (10 mL column, pre-washed with a pH 7.2, 20 mM potassium phosphate buffer containing 500 mM NaCl). The resulting purification column was eluted with 100 mL of washing buffer (a pH7.2, 20 mM potassium phosphate buffer containing 500 mM sodium chloride and 50 mM imidazole) at a rate of 0.5 mL/min to remove the absorbed protein impurities, and then eluted with an elution buffer (a pH7.2, 20 mM potassium phosphate buffer containing 500 mM sodium chloride and 50 mM imidazole) at a speed of 0.5 mL/min to collect an elution solution containing the target protein. Then the elution solution containing the target protein was dialyzed in a dialysis bag (the MWCO of the dialysis bag was 14 KDa) with a pH7.2 of 20 mM potassium phosphate buffer for 48h, and the retentate was taken as pure enzyme. The concentration of the pure enzyme was determined by Beyotime BCA Protein Assay Kit(P0012), and the amount of the pure enzyme used in the following examples was calculated by protein content.
0.4 mg of the crude enzyme solution prepared by the method in Example 2 or 0.05 mg of the pure enzyme, polyphosphoric acid (PPA) at a final concentration of 1.6 g/L, adenosine phosphate (AMP) at a final concentration of 2.25 mM, and MgCl2 at a final concentration of 10 mM were added to 10 mL of 50 mM potassium phosphate buffer (pH 7.5). The reaction solution was incubated at 37° C. for 5 min, and then 10 mL of 0.2 M phosphoric acid solution was added to terminate the reaction. The ATP content in the solution was determined by HPLC method. […]
The wild-type Ecoli.BL21(DE3)-ChPPK constructed by the method of Example 1 and the engineered strain Ecoli.BL21(DE3)-ChPPK/A79G/S106C/I108F/L285P constructed by the method of Example 6 were used to prepare pure enzymes by the method of Example 2. Km and Kcat were calculated by pseudo-one-substrate kinetic model. […]

Nc1ncnc2c1ncn2[C@@H]1O[C@H](COP(=O)(O)O)[C@@H](O)[C@H]1O [AMP, adenosine phosphate]
Km, wild-type compared with mutant (in words): similar
catalytic efficiency (kcat/Km) of the mutant, fold higher than wild-type ChPPK: 16 fold
turnover number (kcat value), mutant compared with wild-type (in words): increased
